Consider three compounds from patent US20050043341A1, “3-'Hydroxy-(-4-trifluoromethylphenyl)-methyl-7-spirocyclobutyl-5,6,7 8-tetrahydroquinolin-5-ol derivatives and the use of the same as cholesterol ester transfer protein (cetp) inhibitors” (priority 2001, published 2005).

Experiment [1] has as its target T1, CETP (Homo sapiens, UniProt P11597).
T1 construct: CETP is obtained in partially purified form from human plasma; from tissue; host or cells: human plasma
T1 sequence (P11597 18-493): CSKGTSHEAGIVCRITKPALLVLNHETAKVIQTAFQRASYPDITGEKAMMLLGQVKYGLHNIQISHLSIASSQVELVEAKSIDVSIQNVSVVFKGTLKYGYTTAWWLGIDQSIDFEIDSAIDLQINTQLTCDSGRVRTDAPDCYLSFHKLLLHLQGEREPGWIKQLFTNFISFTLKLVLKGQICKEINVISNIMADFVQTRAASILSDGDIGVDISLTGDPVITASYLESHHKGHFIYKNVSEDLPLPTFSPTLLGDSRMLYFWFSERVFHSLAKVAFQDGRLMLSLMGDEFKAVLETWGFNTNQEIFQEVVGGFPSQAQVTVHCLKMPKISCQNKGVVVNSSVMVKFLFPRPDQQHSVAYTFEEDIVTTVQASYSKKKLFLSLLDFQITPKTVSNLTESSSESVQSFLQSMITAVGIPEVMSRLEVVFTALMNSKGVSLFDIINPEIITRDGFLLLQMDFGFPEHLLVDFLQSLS
Put plainly: CETP fluorescence test. Type of experiment: biochemical. The conditions noted are these: CETP from human plasma, 37° C., 4 hours; read-out: IC50 (nM) Fluor. test. The protocol:
(§1) CETP is obtained in partially purified form from human plasma by differential centrifugation and column chromatography and used for the test. To this end, human plasma is adjusted to a density of 1.21 g per ml using NaBr and centrifuged at 4° C. at 50000 rpm for 18 h. The bottom fraction (d>1.21 g/ml) is applied to a Sephadex® Phenyl-Sepharose 4B (Pharmacia) column, washed with 0.15 M NaCl/0.001 M tris HCl pH 7.4 and then eluted with dist. water. Die CETP-active fractions are pooled, dialysed against 50 mM Na acetate pH 4.5 and applied to a CM-Sepharose® (Pharmacia) column. The mixture is then eluted using a linear gradient (0-1 M NaCl). The pooled CETP fractions are dialysed against 10 mM TrisHCl pH 7.4 and then further purified by chromatography on a Mono Q® column (Pharmacia).
Measurement of the CETP-catalysed transfer of a fluorescent cholesterol ester between liposomes—modified according to the procedure of Bisgaier et al., J. Lipid Res. 34, 1625 (1993).
For the production of the donor liposomes, 1 mg of cholesteryl 4,4-difluoro-5,7-dimethyl-4-bora-3a,4a-diaza-s-indacene-3-dodecanoate (cholesteryl BODIPY® FL C12, Molecular Probes) is dissolved in 600 μl of dioxane with 5.35 mg of triolein and 6.67 mg of phosphatidylcholine with gentle warming in an ultrasonic bath and this solution is added very slowly with ultrasonication to 63 ml of 50 mM tris/HCl, 150 mM NaCl, 2 mM EDTA buffer pH 7.3 at RT.
The suspension is then ultrasonicated under an N2 atmosphere for 30 minutes in the Braukson ultrasonic bath at about 50 watts, the temperature being kept at about 20° C.
The acceptor liposomes are obtained analogously from 86 mg of cholesteryl oleate, 20 mg of triolein and 100 mg of phosphatidylcholine dissolved in 1.2 ml of dioxane and 114 ml of above buffer by ultrasonication at 50 watts (20° C.) for 30 minutes.
For testing, a test mix consisting of 1 part of above buffer, 1 part of donor liposomes and 2 parts of acceptor liposomes is used.
80 μl of test mix are treated with 1-3 μg of enriched CETP fraction, obtained from human plasma by means of hydrophobic chromatography, and 2 μl of the substance to be investigated in DMSO and incubated at 37° C. for 4 hours.
The change in the fluorescence at 485/535 nm is a measure of the CE transfer; the inhibition of the transfer in comparison to the control batch without substance is determined.

Experiment [2] deals with T1, CETP. Put plainly: CETP-SPA test. It counts as biochemical. The conditions noted are these: 3H-cholesterol ester transfer from HDL to biotin-LDL, 37° C., 18 h. The protocol:
as §1
50 ml of fresh human EDTA plasma are adjusted to a density of 1.12 using NaBr and centrifuged at 4° C. in a Ty 65 rotor at 50000 rpm for 18 h. The upper phase is used for the obtainment of cold LDL. The lower phase is dialysed against 3×41 of PDB buffer (10 mM tris/HCl pH 7.4, […], 1 mM EDTA, 0.02% NaN3). Per 10 ml of retentate volume, 20 μl of 3H-cholesterol (Dupont NET-725; 1 μC/μl dissolved in ethanol!) is then added and the mixture is incubated at 37° C. under N2 for 72 h.
The batch is then adjusted to the density 1.21 using NaBr and centrifuged at 20° C. in a Ty 65 rotor at 50000 rpm for 18 h. The upper phase is recovered and the lipoprotein fractions are purified by gradient centrifugation. To this end, the isolated, labelled lipoprotein fraction is adjusted to a density of 1.26 using NaBr. 4 ml each of this solution are covered in centrifuged tubes (SW 40 rotor) with a layer of 4 ml of a solution of density 1.21 and 4.5 ml of a solution of 1.063 (density solutions of PDB buffer and NaBr) and then centrifuged for 24 h at 38000 rpm and 20° C. in the SW 40 rotor. The intermediate layer lying between the density 1.063 and 1.21, containing the labelled HDL, is dialysed against 3×100 volumes of PDB buffer at 4° C.
The retentate contains radiolabelled ^3H-CE-HDL, which, adjusted to about 5×10^6 cmp per ml, is used for the test.
For testing of the CETP activity, the transfer of ^3H-cholesterol ester from human HD lipoproteins to biotinylated LD lipoproteins is measured.
The reaction is ended by addition of streptavidin-SPA®beads (Amersham) and the transferred radioactivity is determined directly in a liquid scintillation counter.
In the test batch, 10 μl of HDL-^3H-cholesterol ester (˜50000 cpm) are incubated at 37° C. for 18 h with 10 μl of biotin-LDL (Amersham) in 50 mM Hepes/0.15 M NaCl/0.1% bovine serum albumin/0.05% NaN3 pH 7.4 containing 10 μl of CETP (1 mg/ml) and 3 μl of solution of the substance to be tested (dissolved in 10% DMSO/1% RSA). 200 μl of the SPA-streptavidin bead solution (TRKQ 7005) are then added, incubated further with shaking for 1 h and then measured in a scintillation counter.
Corresponding incubations with 10 μl of buffer, 10 μl of CETP at 4° C. and 10 μl of CETP at 37° C. serve as controls.
The activity transferred in the control batches with CETP at 37° C. is rated as 100% transfer. The substance concentration at which this transfer is reduced to half is specified as the IC50 value.

What is called IC50 is the concentration that inhibits the measured activity by half. For `CC(C)c1nc2c(c(-c3ccc(F)cc3)c1[C@@H](O)c1ccc(C(F)(F)F)cc1)[C@@H](O)CC1(CCC1)C2` [Example 51, (5S)-2-Isopropyl-4-(4-fluorophenyl)-3-[(S)-hydroxy-(4-trifluoromethylphenyl)-methyl]-7-spirocyclobutyl-5,6,7,8-tetrahydroquinolin-5-ol], the IC50 in experiment [1] stood at 12 nM; in experiment [2] it was 15 nM.

Consider `CC(C)c1nc2c(c(-c3ccccc3)c1[C@@H](O)c1ccc(C(F)(F)F)cc1)[C@@H](O)CC1(CCC1)C2` [Example 53, (5S)-2-Isopropyl-4-phenyl-3-[(S)-hydroxy-(4-trifluoromethylphenyl)-methyl]-7-spirocyclobutyl-5,6,7,8-tetrahydroquinolin-5-ol], for which the IC50 in experiment [1] and in experiment [2] was 30 nM in each case.

For `CC(C)c1nc2c(c(-c3cccs3)c1[C@@H](O)c1ccc(C(F)(F)F)cc1)[C@@H](O)CC1(CCC1)C2` [Example 61, (5S)-2-Isopropyl-4-(2-thienyl)-3-[(S)-hydroxy-(4-trifluoromethylphenyl)-methyl]-7-spirocyclobutyl-5,6,7,8-tetrahydroquinolin-5-ol], the IC50 in experiment [1] came to 30 nM; in experiment [2], 40 nM.
